Assay results as given in patent publication US20230265151A1, “GIP/GLP1 CO-AGONIST COMPOUNDS” (priority 2020, published 2023).
Like-named read-outs stand apart in the source and are kept apart here.

Columns and labels:
[1] = target: T1, human Gcg receptor (hGcgR) (Homo sapiens, UniProt P47871); experiment: [125I]-Glucagon binding, SPA with membranes of HEK293 cells expressing hGcgR; conditions: human GcgR; geometric mean (SEM, n); read-out: Binding Affinity Ki, nM (SEM, n) hGCGR
T1 construct: expressed in transfected cells; crude membranes
T1 sequence (P47871 26-477): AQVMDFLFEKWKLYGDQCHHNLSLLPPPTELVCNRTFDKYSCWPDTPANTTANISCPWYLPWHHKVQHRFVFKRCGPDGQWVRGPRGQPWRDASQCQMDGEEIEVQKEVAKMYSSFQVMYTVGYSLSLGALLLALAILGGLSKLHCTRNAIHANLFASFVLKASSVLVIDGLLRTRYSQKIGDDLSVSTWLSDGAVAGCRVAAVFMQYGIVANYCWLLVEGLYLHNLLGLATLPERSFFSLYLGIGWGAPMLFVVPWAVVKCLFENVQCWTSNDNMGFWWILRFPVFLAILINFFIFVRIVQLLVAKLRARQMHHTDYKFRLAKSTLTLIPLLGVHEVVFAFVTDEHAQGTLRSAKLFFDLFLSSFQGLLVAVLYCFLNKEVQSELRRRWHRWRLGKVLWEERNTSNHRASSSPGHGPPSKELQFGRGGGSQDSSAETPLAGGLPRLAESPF
Protocol: Two methods are used for the preparation of crude cell membranes.
Method 1: Frozen cell pellets are lysed on ice in hypotonic buffer containing 50 mM Tris HCl, pH 7.5, and Roche Complete™ Protease Inhibitors with EDTA. […] The homogenate is centrifuged at 4° C. at 1100 × g for 10 minutes. The supernatant is collected and stored on ice while the pellets are resuspended in homogenization buffer and rehomogenized as described above. The homogenate is centrifuged at 1100 × g for 10 minutes. The second supernatant is combined with the first supernatant and centrifuged at 35000 × g for 1 hour at 4° C. The resulting membrane pellet is resuspended in homogenization buffer containing protease inhibitors at approximately 1 to 3 mg/mL, quick frozen in liquid nitrogen and stored as aliquots in a -80° C. freezer until use.
The homogenate is centrifuged at 4° C. at 1800 × g for 15 minutes. The supernatant is collected and stored on ice while the pellets are resuspended in homogenization buffer (without DNAse I) and rehomogenized as described above. The homogenate is centrifuged at 1800 × g for 15 minutes. The second supernatant is combined with the first supernatant and centrifuged an additional time at 1800 × g for 15 minutes. The overall supernatant is then centrifuged at 25000 × g for 30 minutes at 4° C. The resulting membrane pellet is resuspended in homogenization buffer (without DNAse I) containing protease inhibitors at approximately 1 to 3 mg/mL and stored as aliquots in a -80° C. freezer until use.
The human Gcg receptor binding assays are performed using a Scintillation Proximity Assay (SPA) format with wheat germ agglutinin (WGA) beads (Perkin Elmer). The binding buffer contains 25 mM 4-(2-hydroxyethyl)-1-piperazineethanesulfonic acid (HEPES), pH 7.4, 2.5 mM CaCl2, 1 mM MgCh, 0.1% (w/v) bacitracin (Research Products), 0.003% (w/v) Polyoxyethylenesorbitan monolaurate (TWEEN®-20), and Roche Complete™ Protease Inhibitors without EDTA. […] Next, 5 µL serially diluted compound or DMSO is transferred into Corning® 3632 clear bottom assay plates containing 45 µL assay binding buffer or unlabeled Gcg control (non-specific binding or NSB, at 1 µM final). […] Plates are sealed and mixed on a plate shaker (setting 6) for 1 minute and read with a PerkinElmer Trilux MicroBeta® scintillation counter after 12 hours of incubation/settling time at room temperature.
Raw CPM data for concentration curves of peptides, Gcg, GLP-1, or GIP are converted to percent inhibition by subtracting nonspecific binding (binding in the presence of excess unlabeled Gcg, GLP-1, or GIP, respectively) from the individual CPM values and dividing by the total binding signal, also corrected by subtracting nonspecific binding. Data are analyzed using four-parameter (curve maximum, curve minimum, IC50, Hill slope) nonlinear regression routines (Genedata Screener, version 12.0.4, Genedata AG, Basal, Switzerland). […] Values for Ki are reported as the geometric mean, with error expressed as the standard error of the mean (SEM) and n is equal to the number of independent replicates (determined in assays performed on different days). Geometric Means are calculated as follows: […]
The Ki Ratio (Ki for native control peptide/Ki for test compound) at each receptor and each species is calculated. The Ki Ratio is a rapid indication of the apparent affinity of a peptide compared to the native control peptide.
n=⅟x means that only one value out of the total number of replicates (x) is used to express the mean. SEM is only calculated when n=2 or greater non-qualified results exist. Means are expressed as GeoMetric means with the standard error of the mean (SEM) and the number of replicates (n) indicated in parenthesis.

hGLP-1R = hGLP-1R (Homo sapiens, UniProt P43220); experiment: Functional cAMP formation (HTRF) in HEK-293 clonal cells expressing hGLP-1R, 0.1% bovine casein, without or with 1.0% human serum albumin; format: cell-based; parameters: expressed in transfected cells; conditions: 0.1% bovine casein and 1.0% human serum albumin, 37° C.; geometric mean; read-out: hGLP-1R EC50, nM (SEM, n)
Sequence of hGLP-1R (P43220 24-463): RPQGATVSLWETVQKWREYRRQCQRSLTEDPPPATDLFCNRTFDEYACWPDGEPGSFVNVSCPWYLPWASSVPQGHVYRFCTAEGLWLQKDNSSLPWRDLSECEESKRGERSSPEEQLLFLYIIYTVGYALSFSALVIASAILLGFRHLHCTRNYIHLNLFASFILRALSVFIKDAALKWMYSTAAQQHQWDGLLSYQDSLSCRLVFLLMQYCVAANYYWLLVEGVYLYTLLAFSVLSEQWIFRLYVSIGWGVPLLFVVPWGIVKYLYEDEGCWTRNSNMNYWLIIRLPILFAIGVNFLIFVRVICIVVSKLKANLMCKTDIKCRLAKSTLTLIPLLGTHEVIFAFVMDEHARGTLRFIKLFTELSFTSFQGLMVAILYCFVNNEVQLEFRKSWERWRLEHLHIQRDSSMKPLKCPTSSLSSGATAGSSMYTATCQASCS
Outline: (§1)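 Readings of the HTRF 665/620 nm ratio, which falls as cAMP rises, were converted to nM cAMP using a standard curve after 30 min peptide exposure at 37° C.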

hGCGR = target: T2, hGCGR (Homo sapiens, UniProt P47871); experiment: Functional cAMP formation (HTRF) in HEK-293 clonal cells expressing hGCGR, 0.1% bovine casein, without or with 1.0% human serum albumin; format: cell-based; conditions: geometric mean, read-out: hGCGR EC50, nM (SEM, n)
T2 construct: expressed in transfected cells
T2 sequence (P47871 26-477): as the sequence (P47871 26-477) above
Outline: as §1

hGIPR = target: T3, hGIPR (Homo sapiens, UniProt P48546); experiment: Functional cAMP formation (HTRF) in HEK-293 clonal cells expressing hGIPR, 0.1% bovine casein, without or with 1.0% human serum albumin; format: cell-based; conditions: for EC50: geometric mean, read-out: hGIPR EC50, nM (SEM, n); for Emax: read-out: hGIPR Emax, % ± SEM
T3 construct: expressed in transfected cells
T3 sequence (P48546 22-466): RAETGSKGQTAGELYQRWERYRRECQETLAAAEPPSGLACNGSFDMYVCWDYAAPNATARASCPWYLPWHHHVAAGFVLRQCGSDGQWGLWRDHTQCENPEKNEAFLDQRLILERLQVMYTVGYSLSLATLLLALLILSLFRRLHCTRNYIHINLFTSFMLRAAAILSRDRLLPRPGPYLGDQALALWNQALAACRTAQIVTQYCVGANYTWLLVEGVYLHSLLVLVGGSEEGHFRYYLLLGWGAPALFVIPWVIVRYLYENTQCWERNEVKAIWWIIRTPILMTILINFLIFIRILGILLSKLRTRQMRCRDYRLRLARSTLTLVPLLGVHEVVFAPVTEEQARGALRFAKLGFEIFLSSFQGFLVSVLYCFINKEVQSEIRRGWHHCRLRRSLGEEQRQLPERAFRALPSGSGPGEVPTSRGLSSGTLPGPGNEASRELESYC
Outline: as §1

[2] = 0.1% bovine casein and 1.0% human serum albumin, 37° C.
[3] = cAMP, incubated at 37° C., 0.1% bovine casein (no human serum albumin)
[4] = HEK293, 0.1% bovine casein and 1.0% human serum albumin, 37° C., percent of maximal response to GIP(1-42)NH2

| SMILES | Ki [1] [nM] | EC50 (hGLP-1R) [nM] | EC50 (hGCGR; [2]) [nM] | EC50 (hGCGR; [3]) [nM] | EC50 (hGIPR; [2]) [nM] | Emax (hGIPR; [4]) [%] | Emax (hGIPR; HEK293, percent of maximal response to GIP(1-42)NH2, 37° C., 0.1% bovine casein, arithmetic mean) [%] | EC50 (hGIPR; [3]) [nM] |
| --- | --- | --- | --- | --- | --- | --- | --- | --- |
| CC[C@H](C)[C@H](NC(=O)[C@H](CC(C)C)NC(=O)[C@](C)(Cc1ccc(O)cc1)NC(=O)[C@@H](CCC(=O)O)NC(=O)[C@@H](NC(=O)[C@H](Cc1ccccc1)NC(=O)[C@H](CCC(=O)O)NC(=O)C(C)(C)NC(=O)[C@H](CCC(N)=O)NC(=O)[C@H](C)NC(=O)[C@H](CCCCNC(=O)COCCOCCNC(=O)COCCOCCNC(=O)CC[C@H](NC(=O)CCCCCCCCCCC(=O)O)C(=O)O)NC(=O)[C@H](CCCN)NC(=O)[C@H](CC(=O)O)NC(=O)[C@H](CC(C)C)NC(=O)[C@](C)(CC(C)C)NC(=O)[C@@H](NC(=O)[C@H](CO)NC(=O)[C@H](Cc1ccncc1)NC(=O)[C@H](CC(=O)O)NC(=O)[C@H](CO)NC(=O)[C@@H](NC(=O)[C@](C)(Cc1ccccc1F)NC(=O)[C@@H](NC(=O)CNC(=O)[C@H](CCC(=O)O)NC(=O)C(C)(C)NC(=O)[C@@H](N)Cc1ccc(O)cc1)[C@@H](C)O)[C@@H](C)O)[C@@H](C)CC)[C@@H](C)CC)C(=O)N[C@@H](CCC(=O)O)C(=O)NCC(=O)NCC(=O)N[C@@H](CCCCNC(=O)COCCOCCNC(=O)COCCOCCNC(=O)CC[C@H](NC(=O)CCCCCCCCCCC(=O)O)C(=O)O)C(=O)N[C@@H](CO)C(=O)N[C@@H](CO)C(=O)NCC(=O)N[C@@H](C)C(=O)N1CCC[C@H]1C(=O)N1CCC[C@H]1C(=O)N1CCC[C@H]1C(=O)N[C@@H](CO)C(N)=O [Example 6] | > 969 | 4.19 | > 9950 | > 9950 | 0.0823 | 89.4 ± 1.74 |  |  |
| CC[C@H](C)[C@H](NC(=O)[C@H](CC(C)C)NC(=O)[C@](C)(Cc1ccc(O)cc1)NC(=O)[C@@H](CCC(=O)O)NC(=O)[C@@H](NC(=O)[C@H](Cc1ccccc1)NC(=O)[C@H](CCC(=O)O)NC(=O)C(C)(C)NC(=O)[C@H](CCC(N)=O)NC(=O)[C@H](C)NC(=O)[C@H](CCCCNC(=O)COCCOCCNC(=O)COCCOCCNC(=O)CC[C@H](NC(=O)CCCCCCCCCCCCC(=O)O)C(=O)O)NC(=O)[C@H](CCCN)NC(=O)[C@H](CC(=O)O)NC(=O)[C@H](CC(C)C)NC(=O)[C@](C)(CC(C)C)NC(=O)[C@@H](NC(=O)[C@H](CO)NC(=O)[C@H](Cc1ccncc1)NC(=O)[C@H](CC(=O)O)NC(=O)[C@H](CO)NC(=O)[C@@H](NC(=O)[C@](C)(Cc1ccccc1F)NC(=O)[C@@H](NC(=O)CNC(=O)[C@H](CCC(=O)O)NC(=O)C(C)(C)NC(=O)[C@@H](N)Cc1ccc(O)cc1)[C@@H](C)O)[C@@H](C)O)[C@@H](C)CC)[C@@H](C)CC)C(=O)N[C@@H](CCCCNC(=O)COCCOCCNC(=O)COCCOCCNC(=O)CC[C@H](NC(=O)CCCCCCCCCCCCC(=O)O)C(=O)O)C(=O)NCC(=O)NCC(=O)N1CCC[C@H]1C(=O)N[C@@H](CO)C(=O)N[C@@H](CO)C(=O)NCC(=O)N[C@@H](C)C(=O)N1CCC[C@H]1C(=O)N1CCC[C@H]1C(=O)N1CCC[C@H]1C(=O)N[C@@H](CO)C(N)=O [Example 17] | > 966 | 48.9 | > 9950 | > 9950 | 0.605 | 88.9 ± 2.36 | 97.5 ± 5.04 | 0.0129 |
